This is an account of results in patent US7183277B2, “Carboxylic acid amides” (Merck Patent GmbH, priority 2002, dated 2007).

Where a name gives a salt, the structure may show the parent alone.

One assay concerns the target FXa (Homo sapiens, UniProt P00742). Kind of assay: Factor Xa inhibition (FXa-IC50). The format is biochemical. The text has this:
The inhibition of factor Xa by the compounds according to the invention and the measurement of the anticoagulant and antithrombotic activity can be determined by conventional in-vitro or in-vivo methods. A suitable method is described, for example, by J. Hauptmann et al. in Thrombosis and Haemostasis 1990, 63, 220–223.
The inhibition of factor Xa can be measured, for example, by the method of T. Hara et al. in Thromb. Haemostas. 1994, 71, 314–319.

The target in the next assay is TF/FVIIa (Homo sapiens, UniProt P08709). Put plainly: TF/FVIIa inhibition (TF/FVIIa-IC50). In kind it is biochemical. The text has this:
The inhibition of factor VIIa by the compounds according to the invention and the measurement of the anticoagulant and antithrombotic activity can be determined by conventional in-vitro or in-vivo methods. A conventional method for the measurement of the inhibition of factor VIIa is described, for example, by H. F. Ronning et al. in Thrombosis Research 1996, 84, 73–81.

FXa, sequence (P00742 235-488 limits assumed): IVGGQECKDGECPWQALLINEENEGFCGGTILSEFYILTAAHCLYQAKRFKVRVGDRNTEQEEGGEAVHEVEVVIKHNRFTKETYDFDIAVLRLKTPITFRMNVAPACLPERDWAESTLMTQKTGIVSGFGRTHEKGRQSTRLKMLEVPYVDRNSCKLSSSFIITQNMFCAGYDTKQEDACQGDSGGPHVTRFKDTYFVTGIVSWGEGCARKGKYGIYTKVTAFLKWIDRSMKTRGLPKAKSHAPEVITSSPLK
FXa, sequence (P00742 41-179 partner limits assumed): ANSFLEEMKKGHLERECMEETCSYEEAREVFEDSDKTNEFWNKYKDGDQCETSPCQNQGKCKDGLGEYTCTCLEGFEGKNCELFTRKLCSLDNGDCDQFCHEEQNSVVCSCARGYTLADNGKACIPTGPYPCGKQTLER
TF/FVIIa, sequence (P08709 213-466 limits assumed): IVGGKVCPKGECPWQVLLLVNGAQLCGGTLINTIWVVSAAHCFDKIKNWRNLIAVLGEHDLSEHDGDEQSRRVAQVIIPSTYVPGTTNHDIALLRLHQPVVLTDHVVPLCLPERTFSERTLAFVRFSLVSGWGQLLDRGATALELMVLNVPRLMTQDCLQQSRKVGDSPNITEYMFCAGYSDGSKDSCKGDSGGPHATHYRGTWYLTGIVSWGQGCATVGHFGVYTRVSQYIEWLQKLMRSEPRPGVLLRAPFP
TF/FVIIa, sequence (P08709 61-212 partner limits assumed): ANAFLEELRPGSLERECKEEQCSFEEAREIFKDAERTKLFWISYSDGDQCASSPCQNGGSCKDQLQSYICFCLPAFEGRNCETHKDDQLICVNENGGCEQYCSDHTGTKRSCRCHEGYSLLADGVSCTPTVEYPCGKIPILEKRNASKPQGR
TF/FVIIa, sequence (P13726 33-295 partner): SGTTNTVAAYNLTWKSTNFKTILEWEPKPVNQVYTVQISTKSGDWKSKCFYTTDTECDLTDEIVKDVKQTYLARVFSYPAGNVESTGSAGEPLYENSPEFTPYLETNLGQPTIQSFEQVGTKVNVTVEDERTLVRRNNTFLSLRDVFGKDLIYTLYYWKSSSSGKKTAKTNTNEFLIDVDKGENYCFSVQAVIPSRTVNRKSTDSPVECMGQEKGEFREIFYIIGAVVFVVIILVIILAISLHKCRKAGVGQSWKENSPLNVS

On to `CON=C1CCCCN1c1ccc(NC(=O)[C@H](OC(=O)Nc2ccc(Cl)cc2)c2ccccc2)cc1` [AA, (R)-2-[N-(4-chlorophenyl)carbamoyloxy]-N-[4-(2-methoxyiminopiperidin-1-yl)phenyl]-2-phenylacetamide], for which the IC50 (in general, the concentration at which inhibition is half-maximal) on FXa was found to be 220 nM; against TF/FVIIa, 290 nM.

`N=C1CCCCN1c1ccc(NC(=O)[C@H](OC(=O)Nc2ccc(Cl)cc2)c2ccccc2)cc1` [AB, (R)-2-[N-(4-chlorophenyl)carbamoyloxy]-N-[4-(2-iminopiperidin-1-yl)phenyl]-2-phenylacetamid, hydrochloride]: the values for the IC50 against FXa and against TF/FVIIa were 58 nM and 99 nM, respectively. The corresponding values for `Cc1cc(NC(=O)[C@H](NC(=O)Nc2ccc(Cl)cc2)c2ccccc2)ccc1N1CCCC1=N` [BA, (R)-2-[3-(4-chlorophenyl)ureido]-N-[4-(2-iminopyrrolidin-1-yl)-3-methylphenyl]-2-phenylacetamide, hydrochloride] are 680 nM and 490 nM.

The molecule `N#CN=C1NCCN1c1ccc(NC(=O)[C@@H](NC(=O)Nc2ccc(Cl)cc2)c2cccs2)cc1` [CA, (R)-2-[3-(4-chlorophenyl)ureido]-N-[4-(2-cyaniminoimidazolidin-1-yl)phenyl]-2-thiophen-2-ylacetamide] returned a half-inhibitory concentration (IC50) at FXa of 54 nM.
